Tests used:
[1] = target: T1, wt human TYK2, catalytic site (Homo sapiens, UniProt P29597); assay: HTRF KinEASE assay, TYK2; assay type: biochemical; conditions: 1 μM ATP; read-out: IC50, Activity Toward TYK2
T1 construct: wt human TYK2, catalytic site; purchased SignalChem
T1 sequence (P29597 897-1176 limits assumed): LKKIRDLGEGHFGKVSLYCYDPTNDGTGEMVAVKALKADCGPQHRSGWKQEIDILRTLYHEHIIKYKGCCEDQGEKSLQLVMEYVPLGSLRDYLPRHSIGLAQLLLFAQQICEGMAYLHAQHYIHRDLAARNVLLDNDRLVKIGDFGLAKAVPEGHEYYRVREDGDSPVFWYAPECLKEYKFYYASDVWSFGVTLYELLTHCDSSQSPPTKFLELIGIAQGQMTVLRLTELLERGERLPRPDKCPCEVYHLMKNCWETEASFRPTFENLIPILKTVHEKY
Procedure, shortened: (§1)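 Kinase reaction run at room temperature for at least 30 min: 2 nM TYK2 with 1 μM ATP, or 1 nM JAK2 with 100 μM ATP, each with 1 μM biotin-TK substrate. Phosphorylation detected by HTRF (60 min antibody/XL665) and evaluated from emission ratios.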

[2] = target: T2, wt human LRRK2, catalytic site (Homo sapiens, UniProt Q5S007); assay: TR-FRET LanthaScreen Eu Kinase Binding Assay, LRRK2 wt; conditions: one range stated for wt and G2019, read-out: IC50, Activity Toward LRRK2(Wt)
T2 construct: 5 nM wt human LRRK2, catalytic site; purchased ThermoFisher
T2 sequence (Q5S007 970-2527 limits assumed): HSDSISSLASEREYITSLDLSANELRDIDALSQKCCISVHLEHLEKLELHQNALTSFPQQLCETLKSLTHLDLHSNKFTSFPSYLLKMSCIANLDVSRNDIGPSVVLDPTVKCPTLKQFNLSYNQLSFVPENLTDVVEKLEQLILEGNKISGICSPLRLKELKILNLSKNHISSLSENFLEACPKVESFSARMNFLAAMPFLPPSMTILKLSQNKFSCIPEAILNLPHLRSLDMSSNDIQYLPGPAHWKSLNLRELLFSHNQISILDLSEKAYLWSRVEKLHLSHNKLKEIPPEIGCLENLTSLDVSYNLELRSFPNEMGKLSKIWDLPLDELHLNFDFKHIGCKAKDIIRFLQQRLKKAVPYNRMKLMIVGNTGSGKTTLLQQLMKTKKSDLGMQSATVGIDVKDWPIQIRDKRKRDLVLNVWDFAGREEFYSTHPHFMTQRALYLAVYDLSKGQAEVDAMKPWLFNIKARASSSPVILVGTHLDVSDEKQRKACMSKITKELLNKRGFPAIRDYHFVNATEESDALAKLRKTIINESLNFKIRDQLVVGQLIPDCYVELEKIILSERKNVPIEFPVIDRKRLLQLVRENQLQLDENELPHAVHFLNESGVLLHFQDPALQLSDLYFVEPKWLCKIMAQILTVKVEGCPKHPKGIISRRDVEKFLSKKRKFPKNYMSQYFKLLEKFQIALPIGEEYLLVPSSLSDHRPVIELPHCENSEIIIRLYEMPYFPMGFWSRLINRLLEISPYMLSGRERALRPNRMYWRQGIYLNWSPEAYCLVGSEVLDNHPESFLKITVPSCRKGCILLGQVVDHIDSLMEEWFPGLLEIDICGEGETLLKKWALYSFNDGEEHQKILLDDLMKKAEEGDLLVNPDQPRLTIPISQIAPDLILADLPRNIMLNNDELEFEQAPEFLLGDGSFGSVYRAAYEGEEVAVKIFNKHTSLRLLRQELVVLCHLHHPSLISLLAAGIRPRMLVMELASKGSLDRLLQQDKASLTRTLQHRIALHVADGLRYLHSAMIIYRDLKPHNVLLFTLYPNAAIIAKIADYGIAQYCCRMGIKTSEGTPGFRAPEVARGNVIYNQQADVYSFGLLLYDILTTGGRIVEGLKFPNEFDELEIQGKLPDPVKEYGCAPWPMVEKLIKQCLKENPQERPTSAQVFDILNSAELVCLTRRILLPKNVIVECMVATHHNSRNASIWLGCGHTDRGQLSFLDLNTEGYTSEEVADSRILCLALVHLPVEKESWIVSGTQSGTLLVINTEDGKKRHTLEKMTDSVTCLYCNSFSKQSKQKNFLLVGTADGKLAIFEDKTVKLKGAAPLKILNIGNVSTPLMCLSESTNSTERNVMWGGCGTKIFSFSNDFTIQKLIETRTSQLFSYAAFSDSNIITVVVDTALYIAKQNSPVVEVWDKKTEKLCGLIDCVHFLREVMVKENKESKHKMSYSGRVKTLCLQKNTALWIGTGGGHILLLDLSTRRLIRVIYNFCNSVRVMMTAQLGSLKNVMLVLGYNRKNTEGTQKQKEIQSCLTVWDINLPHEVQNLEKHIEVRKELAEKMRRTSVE
Procedure, shortened: (§2)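 Each kinase was incubated with compound, 2 nM europium-labelled antibody and Tracer 236 for one hour at room temperature before plate reading. LRRK2 wt and G2019S used 5 nM protein and 10 nM tracer; NUAK1 used 8 nM protein and 5 nM tracer.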

[3] = target: T3, G2019S human LRRK2, catalytic site (Homo sapiens, UniProt Q5S007, G2019S); assay: TR-FRET LanthaScreen Eu Kinase Binding Assay, LRRK2 G2019S; conditions: LRRK2(G2019); one range stated for wt and G2019; read-out: IC50, Activity Toward LRRK2(G2019)
T3 construct: G2019S human LRRK2, catalytic site; purchased ThermoFisher
T3 sequence (Q5S007 970-2527 G2019S limits assumed): as the sequence (Q5S007 970-2527 limits assumed) above, with G1050S counted along it
Procedure, shortened: as §2

[4] = target: T4, wt human NUAK1, full length (Homo sapiens, UniProt O60285); assay: TR-FRET LanthaScreen Eu Kinase Binding Assay, NUAK1; conditions: read-out: IC50, Activity Toward NUAK1
T4 construct: 8 nM wt human NUAK1, full length (ThermoFisher/USA); purchased ThermoFisher
T4 sequence (O60285 1-661): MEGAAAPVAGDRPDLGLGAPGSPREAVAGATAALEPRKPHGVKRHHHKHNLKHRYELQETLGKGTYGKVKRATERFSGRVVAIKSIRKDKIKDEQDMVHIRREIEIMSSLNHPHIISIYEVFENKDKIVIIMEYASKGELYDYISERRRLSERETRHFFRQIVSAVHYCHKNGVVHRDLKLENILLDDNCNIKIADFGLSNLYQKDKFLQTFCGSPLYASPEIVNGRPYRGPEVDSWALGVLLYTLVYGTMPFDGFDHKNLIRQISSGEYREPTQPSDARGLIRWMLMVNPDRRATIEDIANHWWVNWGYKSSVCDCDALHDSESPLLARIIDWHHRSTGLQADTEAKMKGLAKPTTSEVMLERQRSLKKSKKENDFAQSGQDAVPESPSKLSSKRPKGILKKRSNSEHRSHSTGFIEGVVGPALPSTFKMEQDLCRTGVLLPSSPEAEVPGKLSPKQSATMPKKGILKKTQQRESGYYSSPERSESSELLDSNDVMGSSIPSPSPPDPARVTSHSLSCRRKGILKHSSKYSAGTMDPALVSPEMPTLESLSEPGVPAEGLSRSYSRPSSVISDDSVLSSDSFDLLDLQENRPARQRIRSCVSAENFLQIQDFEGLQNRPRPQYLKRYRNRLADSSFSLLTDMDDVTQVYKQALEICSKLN
Procedure, shortened: as §2

[5] = target: T5, wt human JAK1, catalytic site (Homo sapiens, UniProt P23458); assay: HTRF KinEASE assay, JAK1; assay type: biochemical; conditions: 2.5 μM ATP; read-out: IC50, Activity Toward JAK1
T5 construct: wt human JAK1, catalytic site; purchased ThermoFisher
T5 sequence (P23458 875-1153 limits assumed): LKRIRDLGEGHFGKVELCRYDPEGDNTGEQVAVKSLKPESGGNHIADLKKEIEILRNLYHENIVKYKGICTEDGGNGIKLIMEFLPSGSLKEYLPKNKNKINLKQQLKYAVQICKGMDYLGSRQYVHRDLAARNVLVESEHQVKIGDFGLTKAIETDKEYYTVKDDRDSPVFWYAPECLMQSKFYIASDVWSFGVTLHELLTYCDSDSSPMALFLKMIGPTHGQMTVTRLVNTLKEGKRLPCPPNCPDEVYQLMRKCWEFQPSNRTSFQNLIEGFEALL
Procedure, shortened: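 Compounds in DMSO dilution were mixed with kinase, biotin-TK substrate and ATP and reacted for ≥30 min at room temperature. Detection reagents (antibody, streptavidin-XL665) were read 60 min later as HTRF, with emission ratios analysed per KinEASE protocol.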

[6] = target: T6, wt human JAK2, catalytic site (Homo sapiens, UniProt O60674); assay: HTRF KinEASE assay, JAK2; assay type: biochemical; conditions: assay format not given (Z'-LYTE or HTRF KinEASE); read-out: IC50, Activity Toward JAK2
T6 construct: wt human JAK2, catalytic site; purchased SignalChem
T6 sequence (O60674 849-1124 limits assumed): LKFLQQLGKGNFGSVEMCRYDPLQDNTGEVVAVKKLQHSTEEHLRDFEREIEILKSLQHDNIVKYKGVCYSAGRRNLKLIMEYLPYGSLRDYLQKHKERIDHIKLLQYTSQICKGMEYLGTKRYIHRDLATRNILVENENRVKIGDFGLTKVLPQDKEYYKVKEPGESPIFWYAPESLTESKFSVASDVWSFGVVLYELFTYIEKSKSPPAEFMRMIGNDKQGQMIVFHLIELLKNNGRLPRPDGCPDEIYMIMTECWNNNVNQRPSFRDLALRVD
Procedure, shortened: as §1

IC50 [1]	IC50 [2]	IC50 [3]	IC50 [4]	IC50 [5]	IC50 [6]	Compound
10 to 100 nM	10 to 100 nM	10 to 100 nM	100 to 1000 nM	100 to 1000 nM	100 to 1000 nM	CC(C)n1ncnc1-c1ccc(Nc2cn(-c3c(F)cccc3Cl)nc2C(N)=O)cc1 [compound 211, 1-(2-chloro-6-fluorophenyl)-4-((4-(1-isopropyl-1H-1,2,4-triazol-5-yl)phenyl)amino)-1H-pyrazole-3-carboxamide]
< 10 nM	10 to 100 nM	10 to 100 nM	100 to 1000 nM	10 to 100 nM	100 to 1000 nM	CN1CCN(C(=O)c2ccc(Nc3cn(-c4c(F)cccc4Cl)nc3C(N)=O)cc2)CC1 [compound 36, 1-(2-chloro-6-fluorophenyl)-4-((4-(4-methylpiperazine-1-carbonyl)phenyl)amino)-1H-pyrazole-3-carboxamide]
< 10 nM	100 to 1000 nM	100 to 1000 nM	100 to 1000 nM	10 to 100 nM	100 to 1000 nM	CCn1cnnc1-c1ccc(Nc2cn(-c3c(F)cccc3Cl)nc2C(N)=O)cc1 [compound 207, 1-(2-chloro-6-fluorophenyl)-4-((4-(4-ethyl-4H-1,2,4-triazol-3-yl)phenyl)amino)-1H-pyrazole-3-carboxamide]
10 to 100 nM	100 to 1000 nM	100 to 1000 nM	100 to 1000 nM	10 to 100 nM	100 to 1000 nM	NC(=O)c1nn(-c2c(Cl)cccc2Cl)cc1Nc1ccc(-c2nncn2C2CC2)cc1 [compound 206, 4-((4-(4-cyclopropyl-4H-1,2,4-triazol-3-yl)phenyl)amino)-1-(2,6-dichlorophenyl)-1H-pyrazole-3-carboxamide]
10 to 100 nM	10 to 100 nM	10 to 100 nM	100 to 1000 nM	100 to 1000 nM	100 to 1000 nM	NC(=O)c1nn(-c2c(F)cccc2F)cc1Nc1ccc(C(=O)N2CCOCC2)cc1 [compound 12, 1-(2,6-difluorophenyl)-4-((4-(morpholine-4-carbonyl)phenyl)amino)-1H-pyrazole-3-carboxamide]
< 10 nM	10 to 100 nM	10 to 100 nM	100 to 1000 nM	100 to 1000 nM	100 to 1000 nM	NC(=O)c1nn(-c2c(F)cccc2Cl)cc1Nc1ccc(-c2nnc3n2CCOC3)cc1 [compound 62, 1-(2-chloro-6-fluorophenyl)-4-((4-(6,8-dihydro-5H-[1,2,4]triazolo[3,4-c][1,4]oxazin-3-yl)phenyl)amino)-1H-pyrazole-3-carboxamide]
10 to 100 nM	100 to 1000 nM	100 to 1000 nM	10 to 100 nM	100 to 1000 nM	100 to 1000 nM	NC(=O)c1nn(-c2c(F)cccc2F)cc1Nc1ccc(C(=O)NC2CCOCC2)cc1 [compound 13, 1-(2,6-difluorophenyl)-4-((4-((tetrahydro-2H-pyran-4-yl)carbamoyl)phenyl)amino)-1H-pyrazole-3-carboxamide]
< 10 nM	100 to 1000 nM	100 to 1000 nM	100 to 1000 nM	10 to 100 nM	100 to 1000 nM	CCn1cnnc1-c1ccc(Nc2cn(-c3c(Cl)cccc3Cl)nc2C(N)=O)cc1 [compound 87, 1-(2,6-dichlorophenyl)-4-((4-(4-ethyl-4H-1,2,4-triazol-3-yl)phenyl)amino)-1H-pyrazole-3-carboxamide]
10 to 100 nM	100 to 1000 nM	100 to 1000 nM	100 to 1000 nM	10 to 100 nM	100 to 1000 nM	CC(C)n1cnnc1-c1ccc(Nc2cn(-c3c(Cl)cccc3Cl)nc2C(N)=O)cc1 [compound 205, 1-(2,6-dichlorophenyl)-4-((4-(4-isopropyl-4H-1,2,4-triazol-3-yl)phenyl)amino)-1H-pyrazole-3-carboxamide]
< 10 nM	100 to 1000 nM	100 to 1000 nM	100 to 1000 nM	10 to 100 nM	100 to 1000 nM	NC(=O)c1nn(-c2c(Cl)cccc2Cl)cc1Nc1ccc(-c2nnc3ccccn23)cc1 [compound 333, 4-((4-([1,2,4]triazolo[4,3-a]pyridin-3-yl)phenyl)amino)-1-(2,6-dichlorophenyl)-1H-pyrazole-3-carboxamide]
